Biological target: T1, galectin-3 (Homo sapiens, UniProt P17931)
T1 construct: purchased IBL IBATGP0414
Assay: Galectin-3 Activity ELISA assay: inhibition of binding of galectin-3 to a Galβ1-3GlcNAc carbohydrate structure
Conditions: galectin-3 binding to immobilized Galβ1-3GlcNAc polymer, A450 readout, read-out: IC50 Galectin-3 Antagonist Activity
Protocol: Galectin-3 antagonists were evaluated for their ability to inhibit binding of galectin-3 to a Galβ1-3GlcNAc carbohydrate structure. The detailed protocol was as follows. A 1 ug/mL suspension of a Galβ1-3GlcNAcβ1-3Galβ1-4GcNAcβ-PAA-biotin polymer (Glycotech, catalog number 01-096) was prepared. A 100 uL aliquot of the polymer was added to the wells of a 96-well streptavidin-coated plate (R&D Systems, catalog number CP004). A 100 uL aliquot of IX Tris Buffered Saline (TBS, Sigma, catalog number T5912-10×) was added to control wells. The polymer was allowed to bind to the streptavidin-coated wells for 1.5 hours at room temperature. The contents of the wells were discarded and 200 uL of 1×TBS containing 1% bovine serum albumin (BSA) was added to each well as a blocking reagent and the plate was kept at room temperature for 30 minutes. The wells were washed three times with IX TBS containing 0.1% BSA. A serial dilution of test compounds was prepared in a separate V-bottom plate (Corning, catalog number 3897). A 75 uL aliquot of the highest concentration of the compound to be tested was added to the first well in a column of the V-bottom plate then 15 ul were serially transferred into 60 uL IX TBS through the remaining wells in the column to generate a 1 to 5 serial dilution. A 60 uL aliquot of 2 ug/mL galectin-3 (IBL, catalog number IBATGP0414) was added to each well in the V-bottom plate. A 100 uL aliquot of the galectin-3/test compound mixture was transferred from the V-bottom plate into the assay plate containing the Galβ1-3GlcNAc polymer. Four sets of control wells in the assay plate were prepared in duplicate containing 1) both Galβ1-3GlcNAc polymer and galectin-3, 2) neither the polymer nor galectin-3, 3) galectin-3 only, no polymer, or 4) polymer only, no galectin-3. The plate was gently rocked for 1.5 hours at room temperature. The wells were washed four times with TBS/0.1% BSA. A 100 uL aliquot of anti-galectin-3 antibody conjugated to horse radish peroxidase (R&D Systems, from DGAL30 kit) was added to each well and the plate was kept at room temperature for 1 hour. The wells were washed four times with TBS/0.1% BSA. A 100 uL aliquot of TMB substrate solution was added to each well. The TMB substrate solution was prepared by making a 1:1 mixture of TMB Peroxidase Substrate (KPL, catalog number 5120-0048) and Peroxidase Substrate Solution B (KPL, catalog number 5120-0037). The plate was kept at room temperature for 10 to 20 minutes. The color development was stopped by adding 100 uL 10% phosphoric acid (RICCA Chemical Co., catalog number 5850-16). The absorbance at 450 nm (A450) was measured using a FlexStation 3 plate reader (Molecular Devices). Plots of A450 versus test compound concentration and IC50 determinations were made using GraphPad Prism 6.

T1 sequence (P17931 whole entry): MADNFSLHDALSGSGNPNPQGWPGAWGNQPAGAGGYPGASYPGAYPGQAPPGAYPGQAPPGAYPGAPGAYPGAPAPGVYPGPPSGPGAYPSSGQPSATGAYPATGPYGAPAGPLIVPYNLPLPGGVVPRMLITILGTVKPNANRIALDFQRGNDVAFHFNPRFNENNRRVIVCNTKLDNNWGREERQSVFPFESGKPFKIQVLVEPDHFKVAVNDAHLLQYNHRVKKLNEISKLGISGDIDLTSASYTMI

Compound | IC50
COC(=O)[C@@H](OCc1ccccc1)[C@@H]1OC(CO)[C@H](O)C(n2cc(-c3cc(F)c(F)c(F)c3)nn2)C1O (stereo partly shown) [Compound 13] | 3.48 µM
CNC(=O)[C@@H](OCc1ccc2ccccc2c1)[C@@H]1OC(CO)[C@H](O)C(n2cc(-c3cc(F)c(F)c(F)c3)nn2)C1O (stereo partly shown) [Compound 16] | 0.53 µM
CNC(=O)[C@@H](OCc1cccc(-c2ccccc2)c1)[C@@H]1OC(CO)[C@H](O)C(n2cc(-c3cc(F)c(F)c(F)c3)nn2)C1O (stereo partly shown) [Compound 17] | 2.56 µM
CNC(=O)[C@@H](OCc1cccc(C(=O)OC)c1)[C@@H]1OC(CO)[C@H](O)C(n2cc(-c3cc(F)c(F)c(F)c3)nn2)C1O (stereo partly shown) [Compound 18] | 0.67 µM
CNC(=O)[C@@H](OCc1ccc(Cl)cc1)[C@@H]1OC(CO)[C@H](O)C(n2cc(-c3cc(F)c(F)c(F)c3)nn2)C1O (stereo partly shown) [Compound 19] | 0.32 µM
CNC(=O)[C@@H](OCc1cccc(Cl)c1)[C@@H]1OC(CO)[C@H](O)C(n2cc(-c3cc(F)c(F)c(F)c3)nn2)C1O (stereo partly shown) [Compound 20] | 1.52 µM
CNC(=O)[C@@H](OCc1cccc(OC(F)(F)F)c1)[C@@H]1OC(CO)[C@H](O)C(n2cc(-c3cc(F)c(F)c(F)c3)nn2)C1O (stereo partly shown) [Compound 21] | 1.94 µM
CNC(=O)[C@@H](OCc1ccc(F)cc1)[C@@H]1OC(CO)[C@H](O)C(n2cc(-c3cc(F)c(F)c(F)c3)nn2)C1O (stereo partly shown) [Compound 24] | 1.72 µM
CNC(=O)[C@@H](OCc1ccc(F)c(F)c1)[C@@H]1OC(CO)[C@H](O)C(n2cc(-c3cc(F)c(F)c(F)c3)nn2)C1O (stereo partly shown) [Compound 25] | 1.08 µM
CNC(=O)[C@@H](OCc1ccc(C(F)(F)F)cc1)[C@@H]1OC(CO)[C@H](O)C(n2cc(-c3cc(F)c(F)c(F)c3)nn2)C1O (stereo partly shown) [Compound 26] | 0.35 µM
CNC(=O)[C@@H](OCc1ccc(F)c(Cl)c1)[C@@H]1OC(CO)[C@H](O)C(n2cc(-c3cc(F)c(F)c(F)c3)nn2)C1O (stereo partly shown) [Compound 27] | 2.09 µM
CNC(=O)[C@@H](OCc1ccc(S(C)(=O)=O)cc1)[C@@H]1OC(CO)[C@H](O)C(n2cc(-c3cc(F)c(F)c(F)c3)nn2)C1O (stereo partly shown) [Compound 28] | 0.69 µM
CNC(=O)[C@@H](OCc1ccc(C(=O)OC)cc1)[C@@H]1OC(CO)[C@H](O)C(n2cc(-c3cc(F)c(F)c(F)c3)nn2)C1O (stereo partly shown) [Compound 29] | 4.6 µM
CNC(=O)[C@@H](OCc1ccc(OC(F)(F)F)cc1)[C@@H]1OC(CO)[C@H](O)C(n2cc(-c3cc(F)c(F)c(F)c3)nn2)C1O (stereo partly shown) [Compound 30] | 4.98 µM
CNC(=O)[C@@H](OCc1ccc(Cl)c(F)c1)[C@@H]1OC(CO)[C@H](O)C(n2cc(-c3cc(F)c(F)c(F)c3)nn2)C1O (stereo partly shown) [Compound 31] | 0.18 µM

Further lines, results first:

IC50 | Compound
2.81 µM | CNC(=O)[C@@H](OCc1ccc(OC)cc1)[C@@H]1OC(CO)[C@H](O)C(n2cc(-c3cc(F)c(F)c(F)c3)nn2)C1O (stereo partly shown) [Compound 32]
1.64 µM | CNC(=O)[C@@H](OCc1ccc(C2CC2)cc1)[C@@H]1OC(CO)[C@H](O)C(n2cc(-c3cc(F)c(F)c(F)c3)nn2)C1O (stereo partly shown) [Compound 33]
0.85 µM | CNC(=O)[C@@H](OCc1cccnc1)[C@@H]1OC(CO)[C@H](O)C(n2cc(-c3cc(F)c(F)c(F)c3)nn2)C1O (stereo partly shown) [Compound 34]
> 100 µM | CCCCNC(=O)[C@@H](OCc1ccccc1)[C@@H]1OC(CO)[C@H](O)C(n2cc(-c3cc(F)c(F)c(F)c3)nn2)C1O (stereo partly shown) [Compound 35]
3.86 µM | CNC(=O)[C@@H](OCc1ccccc1)[C@@H]1OC(CO)[C@H](O)C(n2cc(-c3cc(F)c(F)c(F)c3)nn2)C1O (stereo partly shown) [Compound 36]
2.61 µM | CNC(=O)[C@@H](OCc1ccccc1)[C@@H]1OC(CO)[C@H](O)[C@H](n2cc(-c3cc(F)c(F)c(F)c3)nn2)C1OC (stereo partly shown) [Compound 40]
9.58 µM | COC1[C@H]([C@H](OCc2ccccc2)C(=O)N(C)C)OC(CO)[C@H](O)[C@@H]1n1cc(-c2cc(F)c(F)c(F)c2)nn1 (stereo partly shown) [Compound 41]
2.06 µM | COC1C(n2cc(-c3cc(F)c(F)c(F)c3)nn2)[C@@H](O)C(CO)O[C@H]1[C@H](OCc1ccc(Cl)cc1)C(=O)N(C)C (stereo partly shown) [Compound 42]
0.23 µM | COC1C(n2cc(-c3cc(F)c(F)c(F)c3)nn2)[C@@H](O)C(CO)O[C@H]1[C@H](OCc1ccc(Cl)cc1)C(=O)Nc1ccccc1F (stereo partly shown) [Compound 69]
0.72 µM | COC1C(n2cc(-c3cc(F)c(F)c(F)c3)nn2)[C@@H](O)C(CO)O[C@H]1[C@H](OCc1ccc(Cl)cc1)C(=O)NCC(F)(F)F (stereo partly shown) [Compound 70]

Reference: US11873317B2, “Galectin-3 inhibiting c-glycosides” (GLYCOMIMETICS, INC., priority 2018, dated 2024)
